Source: patent US11612652B2, “Lipids as synthetic vectors to enhance antigen processing and presentation ex-vivo in dendritic cell therapy” (PDS Biotechnology Corporation, priority 2015, dated 2023)

Assays:
TC-1 tumors = experiment: Established TC-1 tumor model: tumor microenvironment, tumor volume, ELISPOT; assay type: in vivo, C57 mice; settings: Day 19 flow cytometry
Method: C57 mice were divided into the following groups of 8 mice per group: R-DOTAP+HPV16 E7 peptide KF18 ([…]) (SEQ ID NO: 4) , GM-CSF+HPV16 E7 peptide KF18, R-DOTAP, GM-C SF, HPV16 E7 peptide KF18, untreated. 1×10^5 TC-1 tumor cells were injected into the flank of the mice on day 0. The various formulations were administered on Days 12 and 19 after tumor implantation. On day 19 4-5 mice per group were sacrificed and a number of evaluations performed to evaluate the immunology of the tumor microenvironment.
RF9 specific dextramer staining and flow cytometry were utilized to quantify the number of HPV-specific CD8+ T-cells that had infiltrated into the tumor micro-environment. The study quantified the number of CD8+ T cells specific to the mouse epitope RF9. These CD8+ T cells were measured as a percentage of all immune cells (CD45, CD3 and CD8) present in the tumor. Antigen specific T cells infiltrating into the tumor were measured using RF9 specific dextramers by flow cytometry. […] Data represents mean±SEM of 4-5 mice in each group.
On Day 19 flow cytometry was used to study the immuno-suppressive tumor microenvironment, specifically the regulatory T cell population. T regulatory cells (CD45+CD3+CD4+CD25+Foxp3+) cells infiltrated into tumors on day 14 and day 19.
Of critical importance to the clinical efficacy of any immunotherapy is the ratio of immune suppressive cells to tumor targeting CD8+ T cells within the tumor microenvironment. A lower ratio of immune suppressor cells to CD8+ T cells promotes improved prognosis for anti-tumor benefit. […] Cationic lipids appear to promote the preferential expansion of the right phenotype of effector T-cells in preference to Tregs.
The various formulations were evaluated for their impact on the established TC-1 tumors in the same study. […] Tumor volumes were measured using calipers. The naïve mice group are tumor bearing mice that remained untreated. The HPV16 E7 peptide used in the vaccine is KF18. […]
In this study, IFN-γ ELISPOT studies were also performed to quantify and understand the “quality” of tumor-specific T-cell generated. […]

popliteal LN = experiment: Homing of CFSE labeled adoptively transferred spleen cells with or without pertussis toxin; assay type: in vivo, B6 mice; settings: 16 h
Description: The primary objective of the current experiment was to utilize 5 mice to perform the study described in Example 7 and to visualize the homing of CFSE labeled adoptively transferred cells. The study included a population of cells that had been treated in vitro with pertussis toxin to inactivate chemokine receptors. Pertussis toxin and untreated cells were labeled with two different concentrations of CFSE so that they could be distinguished by flow cytometry. The lymphocytes should be induced to home to lymph nodes.
Spleen cells were prepared from a single B6 mouse and divided in half. Half of the cells were treated with Pertussis toxin 100 ng/ml for 1 hour at 37° C. and washed. The two cell populations were then labeled with CFSE at two different concentrations so they could be distinguished by flow cytometry, and mixed together. The mix (10^7 cells) was injected i.v. into the tail vein of 5 B6 mice. The mice were then anesthetized and injected in the footpad with either sucrose (right footpad) or R-DOTAP (left footpad, 50 μl, 600 nmoles).
After 16 h, the mice were sacrificed and the popliteal LN and spleens harvested. The total cells recovered from left and right nodes from each mouse were counted.

For CCCCCCCC/C=C\CCCCCCCC(=O)OCC(C[N+](C)(C)C)OC(=O)CCCCCCC/C=C\CCCCCCCC (stereo not drawn) [R-DOTAP, 1,2-dioleoyl-3-trimethylammonium propane], the “ability to reduce the population of Tregs in tumors” value (TC-1 tumors) was “statistical significance was not achieved”, the “infiltration of transferred CFSE labeled lymphocytes into lymph node” value (popliteal LN; R-DOTAP footpad 50 μl, 600 nmoles, untreated cells) was “transferred CFSE labeled lymphocytes also infiltrated the lymph node upon R-DOTAP vaccination” and the “infiltration of pertussis toxin treated CFSE labeled cells into lymph node” value (popliteal LN; cells treated with Pertussis toxin 100 ng/ml) was “this did not occur with the pertussis treated cells”.
